Patent publication US10717714B2, “Reactive ultraviolet absorber and application thereof” (CHITEC TECHNOLOGY CO., LTD., priority 2017, dated 2020)

Test: Thermal stability test (Gardner color of DMF solution before and after 150° C. for 3 hours)
Assay type: physicochemical
Conditions: for Color (Gardner color scale), after thermal processing for 3 hours / Color (Gardner color scale), initial: 2 g in 10 ml DMF; for Color (Gardner color scale), after thermal processing for 3 hours: 150° C. for 3 hours; for Color (Gardner color scale), initial: before thermal processing; for Change in color (delta color): before and after heating at 150° C. for 3 hours
Procedure: 2 g each of the reactive UV absorber I of the present invention, the comparative reactive UV absorber A, and the comparative reactive UV absorber B represented by the following formula B (an embodiment of reactive UV absorber with formula (IIIb) disclosed by U.S. Pat. No. 5,459,222) were respectively dissolved in 10 ml of dimethylformamide (DMF), and the obtained dimethylformamide solutions were subjected to thermal processing at 150° C. for 3 hours. The Gardner color scales of the solutions were measured by colorimeter (Lovibond PFXi-195).

## CC(C)(C)c1cc(CCC(=O)N(CCO)CCO)cc(-n2n3c4ccccc4n23)c1O [Comparative reactive UV absorber A]
  Color (Gardner color scale), after thermal processing for 3 hours: 9.1
  Color (Gardner color scale), initial: 5.4
  Change in color (delta color): 3.7

## Cc1cc(CN(CCO)CCO)c(O)c(-n2n3c4ccccc4n23)c1 [Comparative reactive UV absorber B]
  Color (Gardner color scale), after thermal processing for 3 hours: 7.2
  Color (Gardner color scale), initial: 4.2
  Change in color (delta color): 3.0
